“And” between values parts separate entries of the source, which are not always exact repeats. Identical values can stand only once.
Key:
[1] = tested on: HT-29 (human colon adenocarcinoma); assay: Inhibition of cell proliferation (MTT), HT-29; assay type: cell-based; conditions: 48 h of treatment (footnote), average ±SD of three experiments
[2] = tested on: MCF-7 (breast adenocarcinoma); assay: Inhibition of cell proliferation (MTT), MCF-7; assay type: cell-based, human; conditions: 48 h of treatment (footnote), average ±SD of three experiments
[3] = tested on: HEK-293 (human embryonic kidney cells); assay: Inhibition of cell proliferation (MTT), nontumor HEK-293; assay type: cell-based; conditions: 48 h of treatment (footnote), average ±SD of three experiments
purified tubulin = assay: Critical concentration (CrC) for the assembly of purified tubulin in GAB; assay type: biochemical; conditions: compound 27.5 μM, tubulin 25 μM, glycerol (GAB) and GTP assembly buffer; control 7.9 ± 1.2
Protocol: The effect on the self-assembly of tubulin was determined by measuring the critical concentration (CrC).

c-Myc gene = c-Myc gene expression by RT-qPCR in HT-29 cells; assay type: cell-based, human
Protocol: The effect on the expression of VEGF, hTERT and c-Myc genes has been studied for CA-4 and its derivatives that show selectivity indexes higher than 0.9 on the HT-29 cell line. The studied derivatives, together with the concentrations to which they have been tested, are CA-4 (15 μM); 4.1 (Gly, 5 μM); 4.5 (L-Pro, 25 μM); 4.9 (L-Met, 25 μM); 6.2 (D-Leu, 25 μM); 6.3 (D-Phe, 25 μM); 6.4 (D-Pro, 25 μM) and 6.5 (D-Ser, 10 μM). The expression of the genes was determined by RT-qPCR methodology, as described in the Materials and Methods section.
As regards AmCA-4 derivatives, the effect on the expression of the VEGF, hTERT and c-Myc genes has been studied on those that show IC50 in the low nanomolar range on the HT-29 cell line and/or on compounds whose selectivity indexes with respect to this cell line are higher than 1. The studied compounds, together with the concentrations to which they have been tested, are: CA-4 (15 μM), AmCA-4 (15 nM), 7.1 (7 nM), 7.2 (1.5 nM), 7.3 (4 nM), 7.4 (15 nM), 7.5 (2 nM), 7.7 (7 nM), 7.8 (15 nM), 7.9 (30 nM), 8.1 (7 nM), 8.2 (3 nM), 8.3 (10 nM), 8.4 (1.5 nM), 8.5 (4 nM), 8.7 (7 nM), 8.8 (3 nM) and 8.9 (4 nM).
HT-29 cells at 70–80% confluence were collected, and 1.5 × 10^5 cells were placed in a six-well plate in 1.5 mL of the medium. After 24 h, cells were incubated with the corresponding compounds for 48 h. Cells were collected, and the total cellular RNA from the HT-29 cells was isolated using an Ambion RNA Extraction Kit, according to the manufacturer’s instructions. The cDNA was synthesized by MMLV-RT with […] of extracted RNA and oligo(dT)15, according to the manufacturer’s instructions. Genes were amplified by a thermal cycler and StepOnePlus™ TaqMan® probes. TaqMan® Gene Expression Master Mix Fast, containing the appropriate buffer for the amplification conditions, dNTPs, thermostable DNA polymerase enzyme and a passive reference probe, was used. To amplify each of the genes, the predesigned primers sold by Life Technologies TaqMan® Gene Expression Assays Hs99999903-m1 (β-actin), Hs00900055-m1 (VEGF), Hs00972646-m1 (hTERT) and Hs00153408-m1 (c-Myc) were used.

[4] = Homo sapiens, HT-29, 48 h, Table 2
[5] = Homo sapiens, MCF7, 48 h, Table 2
[6] = Homo sapiens, HEK293, 48 h, Table 2
[7] = Homo sapiens, HT-29, 48 h, Table 1
[8] = Homo sapiens, MCF7, 48 h, Table 1
[9] = Homo sapiens, HEK293, 48 h, Table 1
[10] = HT-29, 48 h; discussion; concentration per compound
[11] = Homo sapiens, HT-29, 48 h, 25 μM, control 100
[12] = Homo sapiens, HT-29, 48 h, 7 nM, control 100
[13] = Homo sapiens; HT-29, 48 h, 25 μM; control 100
[14] = Homo sapiens, HT-29, 48 h, 4 nM, control 100

COc1ccc(/C=C\c2cc(OC)c(OC)c(OC)c2)cc1NC(=O)[C@H](CCSC)NC(=O)OCC1c2ccccc2-c2ccccc21 [Compound 7.9]
IC50 [1, 4]: 33 ± 20 nM
IC50 [2, 5]: 5.1 ± 0.3 nM
IC50 [3, 6]: 8 ± 4 nM
CrC (critical concentration) (purified tubulin): 7.1 ± 0.4 µM
mrna remaining at 0.03 µM (c-Myc gene; Homo sapiens, HT-29, 48 h, 30 nM, control 100): 61%

COc1ccc(/C=C\c2cc(OC)c(OC)c(OC)c2)cc1OCC(=O)N[C@@H](CCSC)C(=O)O [Compound 4.9]
IC50 [1, 7]: 32000 ± 6000 nM
IC50 [2, 8]: 13000 ± 2000 nM
IC50 [3, 9]: 40000 ± 4000 nM
CrC (critical concentration) (purified tubulin): 8.6 ± 0.4 µM
downregulation of c-Myc gene expression (c-Myc gene; [10]): more than 55%
mrna remaining at 25 µM (c-Myc gene; [11]): 37%

COc1ccc(/C=C\c2cc(OC)c(OC)c(OC)c2)cc1O [CA-4, combretastatin A-4]
IC50 ([1]; Homo sapiens, HT-29, Table 1): 4200 ± 500 nM
IC50 ([2]; Homo sapiens, MCF7, Table 1): 1000 ± 200 nM
IC50 ([3]; Homo sapiens, HEK293, Table 1): 25000 ± 3000 nM
CrC (critical concentration) (purified tubulin): 21.5 µM and 21.5 ± 0.8 µM
mrna remaining at 15 µM (c-Myc gene; Homo sapiens; HT-29, 48 h, 15 μM; control (DMSO) 100; normalized to β-actin): 35%

COc1ccc(/C=C\c2cc(OC)c(OC)c(OC)c2)cc1OCC(=O)N[C@H](CC(C)C)C(=O)O [Compound 6.2]
IC50 [1, 7]: 47000 ± 9000 nM
IC50 [2, 8]: 25000 ± 2000 nM
IC50 [3, 9]: 49000 ± 12000 nM
CrC (critical concentration) (purified tubulin): 11 ± 3 µM
mrna remaining at 25 µM (c-Myc gene; [11]): 68%

COc1ccc(/C=C\c2cc(OC)c(OC)c(OC)c2)cc1NC(=O)[C@H](Cc1ccccc1)NC(=O)OCC1c2ccccc2-c2ccccc21 [Compound 7.5]
IC50 [1, 4]: 8 ± 3 nM
IC50 [2, 5]: 14 ± 4 nM
IC50 [3, 6]: 2.3 ± 2 nM
CrC (critical concentration) (purified tubulin): 8.1 ± 1.6 µM
downregulation of c-Myc gene expression (c-Myc gene; [10]): more than 60%
mrna remaining at 0.002 µM (c-Myc gene; Homo sapiens, HT-29, 48 h, 2 nM, control 100): 40%

COc1ccc(/C=C\c2cc(OC)c(OC)c(OC)c2)cc1NC(=O)CNC(=O)OCC1c2ccccc2-c2ccccc21 [Compound 7.1]
IC50 [1, 4]: 7 ± 4 nM
IC50 [2, 5]: 4.8 ± 0.5 nM
IC50 [3, 6]: 3.5 ± 1.9 nM
CrC (critical concentration) (purified tubulin): 11 ± 4 µM
mrna remaining at 0.007 µM (c-Myc gene; [12]): 58%

COc1ccc(/C=C\c2cc(OC)c(OC)c(OC)c2)cc1N [AmCA-4, 3′-aminocombretastatin A-4]
IC50 [1, 4]: 22 ± 1 nM
IC50 [2, 5]: 8 ± 1 nM
IC50 [3, 6]: 7 ± 1 nM
CrC (critical concentration) (purified tubulin): 23 ± 3 µM
mrna remaining at 0.015 µM (c-Myc gene; Homo sapiens; HT-29, 48 h, 15 nM; control 100): 58%

COc1ccc(/C=C\c2cc(OC)c(OC)c(OC)c2)cc1NC(=O)[C@H](C)N [Compound 8.2]
IC50 [1, 4]: < 5 nM
IC50 ([1]; Table 2): 3 ± 0.3 nM
IC50 [2, 5]: < 5 nM
IC50 ([2]; Table 2): 4.8 ± 0.5 nM
IC50 [3, 6]: < 5 nM
IC50 ([3]; Table 2): 4 ± 0.1 nM
CrC (critical concentration) (purified tubulin): 13.9 ± 1.5 µM
mrna remaining at 0.003 µM (c-Myc gene; Homo sapiens, HT-29, 48 h, 3 nM, control 100): 97%

COc1ccc(/C=C\c2cc(OC)c(OC)c(OC)c2)cc1OCC(=O)N[C@H](Cc1ccccc1)C(=O)O [Compound 6.3]
IC50 ([1]; Homo sapiens, HT-29, Table 1): 27000 ± 5000 nM
IC50 ([2]; Homo sapiens, MCF7, Table 1): 43000 ± 3000 nM
IC50 ([3]; Homo sapiens, HEK293, Table 1): 46000 ± 6000 nM
CrC (critical concentration) (purified tubulin): 9.2 ± 0.4 µM
mrna remaining at 25 µM (c-Myc gene; [13]): 55%

COc1ccc(/C=C\c2cc(OC)c(OC)c(OC)c2)cc1OCC(=O)N[C@H](CO)C(=O)O [Compound 6.5]
IC50 [1, 7]: 13000 ± 1000 nM
IC50 [2, 8]: 12000 ± 1000 nM
IC50 [3, 9]: 14000 ± 4000 nM
CrC (critical concentration) (purified tubulin): 9.25 ± 0.16 µM
mrna remaining at 10 µM (c-Myc gene; Homo sapiens, HT-29, 48 h, 10 μM, control 100): 94%

COc1ccc(/C=C\c2cc(OC)c(OC)c(OC)c2)cc1OCC(=O)N1CCC[C@@H]1C(=O)O [Compound 6.4]
IC50 [1, 7]: 50000 ± 11000 nM
IC50 [2, 8]: 55000 ± 13000 nM
IC50 [3, 9]: 53000 ± 9000 nM
CrC (critical concentration) (purified tubulin): 10 ± 3 µM
mrna remaining at 25 µM (c-Myc gene; [11]): 81%

COc1ccc(/C=C\c2cc(OC)c(OC)c(OC)c2)cc1NC(=O)[C@@H](N)Cc1ccccc1 [Compound 8.5]
IC50 [1, 4]: < 5 nM
IC50 ([1]; Table 2): 4.4 ± 2.5 nM
IC50 [3, 6]: < 5 nM
IC50 ([3]; Table 2): 3.5 ± 1.9 nM
CrC (critical concentration) (purified tubulin): 9.1 ± 0.9 µM
mrna remaining at 0.004 µM (c-Myc gene; [14]): 74%

COc1ccc(/C=C\c2cc(OC)c(OC)c(OC)c2)cc1NC(=O)[C@@H](N)C(C)C [Compound 8.3]
IC50 [1, 4]: 13.3 ± 0.5 nM
IC50 [2, 5]: 13 ± 2 nM
IC50 [3, 6]: 7.6 ± 0.3 nM
CrC (critical concentration) (purified tubulin): 9.3 ± 0.5 µM
mrna remaining at 0.01 µM (c-Myc gene; Homo sapiens, HT-29, 48 h, 10 nM, control 100): 62%

COc1ccc(/C=C\c2cc(OC)c(OC)c(OC)c2)cc1OCC(=O)NCC(=O)O [Compound 4.1]
IC50 [1, 7]: 5000 ± 1000 nM
IC50 [2, 8]: 6000 ± 1000 nM
IC50 [3, 9]: 5000 ± 1000 nM
CrC (critical concentration) (purified tubulin): 9.3 ± 0.4 µM
mrna remaining at 5 µM (c-Myc gene; Homo sapiens, HT-29, 48 h, 5 μM, control 100): 62%

COc1ccc(/C=C\c2cc(OC)c(OC)c(OC)c2)cc1OCC(=O)N[C@H](C(=O)O)C(C)C [Compound 4.2]
IC50 ([1]; Homo sapiens, HT-29, Table 1): 12000 ± 5000 nM
IC50 ([2]; Homo sapiens, MCF7, Table 1): 7000 ± 1000 nM
IC50 ([3]; Homo sapiens, HEK293, Table 1): 4000 ± 1000 nM
CrC (critical concentration) (purified tubulin): 9.3 ± 0.3 µM
mrna remaining at 25 µM (c-Myc gene; [13]): 71%

COc1ccc(/C=C\c2cc(OC)c(OC)c(OC)c2)cc1NC(=O)CN [Compound 8.1]
IC50 [1, 4]: 10 ± 2 nM
IC50 [2, 5]: 9 ± 4 nM
IC50 [3, 6]: 10 ± 2 nM
CrC (critical concentration) (purified tubulin): 10.2 ± 1.8 µM
mrna remaining at 0.007 µM (c-Myc gene; [12]): 54%

COc1ccc(/C=C\c2cc(OC)c(OC)c(OC)c2)cc1NC(=O)[C@@H](N)C(C)O (stereo partly shown) [Compound 8.7]
IC50 [1, 4]: 8 ± 2 nM
IC50 [2, 5]: 12 ± 1 nM
IC50 [3, 6]: 14 ± 3 nM
CrC (critical concentration) (purified tubulin): 12.3 ± 0.6 µM
downregulation of c-Myc gene expression (c-Myc gene; [10]): more than 60%
mrna remaining at 0.007 µM (c-Myc gene; [12]): 37%

COc1ccc(/C=C\c2cc(OC)c(OC)c(OC)c2)cc1NC(=O)[C@@H](N)CCSC [Compound 8.9]
IC50 [1, 4]: < 5 nM
IC50 ([1]; Table 2): 4.9 ± 0.1 nM
IC50 [2, 5]: < 5 nM
IC50 ([2]; Table 2): 3.4 ± 1.2 nM
IC50 [3, 6]: < 5 nM
IC50 ([3]; Table 2): 3.7 ± 0.3 nM
CrC (critical concentration) (purified tubulin): 8.5 ± 1.2 µM
mrna remaining at 0.004 µM (c-Myc gene; [14]): 70%

From article PMC7037732, “Synthesis of Combretastatin A-4 and 3′-Aminocombretastatin A-4 derivatives with Aminoacid Containing Pendants and Study of their Interaction with Tubulin and as Downregulators of the VEGF, hTERT and c-Myc Gene Expression” (Molecules, 2020)
